Patent US20220054387A1, “COMPOSITION COMPRISING AT LEAST ONE GLYCOSYLATED FLAVONOID AND ITS USE IN COSMETICS OR DERMATOLOGY” (PURALLY, priority 2020, published 2022)

Tests used:
IL-31 = IL-31 release by keratinocytes exposed to benzo[a]pyrene and blue light (ELISA); assay type: cell-based, human
Method: The cells used in this study are primary cultures of normal human keratinocytes (NHKs) extracted after skin surgery of a donor.
They were cultured in a complete KSFM environment: Keratinocyte-SFM (17005-31, Gibco) with L-Glutamine, supplemented with a recombinant human epidermal growth factor (EGFhr, 10450-013, Gibco), extract of bovine pituitary gland (BPE, 13028-014, Gibco) and 1% of streptomycin penicillin (15070-063, Gibco) at 37° C. in 5% CO2 atmosphere up until 80% confluence.
The keratinocytes cultured according to Example 1 are exposed either to benzo[a]pyrene (B[a]P) at 20 μμM, or to blue light (450 nm) at 40 J/cm^2 or to the combination of both at the same doses. A myricitrin treatment with amounts ranging from 10 μμM to 50 μμM is applied to cells that have previously received the B[a]P and blue light combination.
After 24 hours' treatment, an assay of the interleukin 31 (IL-31) released by the cells is performed, via an immunoassay kit (ELISA.) The IL-31 assay was performed with the human IL-31 ELISA MAX™ Deluxe Set (445704, Biolegend.)

[1] = tested on: normal human keratinocytes; test: Keratinocyte viability assay (XTT); assay type: cell-based; settings: myricitrin 0.21 to 50 μμM, 24 hours
Method: The cells used in this study are primary cultures of normal human keratinocytes (NHKs) extracted after skin surgery of a donor. They were cultured in a complete KSFM environment: Keratinocyte-SFM (17005-31, Gibco) with L-Glutamine, supplemented with a recombinant human epidermal growth factor (EGFhr, 10450-013, Gibco), extract of bovine pituitary gland (BPE, 13028-014, Gibco) and 1% of streptomycin penicillin (15070-063, Gibco) at 37° C. in 5% CO2 atmosphere up until 80% confluence. On D0, normal human keratinocytes are incubated in 96-well plates in a culture medium. The cells are left to stabilize for 24 hours at 37° C. in 5% CO2 atmosphere, as described in Example 1. […] The NHK viability was assessed using a Cell Proliferation Kit II (XTT) (11465015001, Roche) in accordance with the manufacturer's instructions. The XTT system, a colorimetric method, is a test used to quantify mitochondrial activity. […] The formazan derivate is measured by spectrophotometry (at 450 nm with 650 nm of reference.) For each condition, optical density data averages (OD, absorbance) are calculated. The viability of the treated cells is expressed as a percentage of untreated control batch: a treatment that reduces the viability of the cells to below the comparative limit of 80% of mitochondrial activity in the untreated control batch, is considered cytotoxic for the cells. […]

| Structure (SMILES) | increase in IL-31 by the keratinocytes (IL-31; benzo[a]pyrene 20 μμM combined with blue light (450 nm) 40 J/cm^2) | toxic effect on keratinocytes (cell viability, XTT) [1] | decrease in the production of IL-31 (IL-31; myricitrin as of 20 μM, cells pre-treated with 20 μM of B[a]P and 40 J/cm^2 of blue light, 24 hours' treatment) [%] |
| --- | --- | --- | --- |
| c1ccc2c(c1)cc1ccc3cccc4ccc2c1c34 [benzo[a]pyrene, reference compound] | +111% |  |  |
| C[C@@H]1O[C@@H](Oc2c(-c3cc(O)c(O)c(O)c3)oc3cc(O)cc(O)c3c2=O)[C@H](O)[C@H](O)[C@H]1O [myricitrin, 5,7-dihydroxy-3-[(2S,3R,4R,5R,6S)-3,4,5-trihydroxy-6-methyloxan-2-yl]oxy-2-(3,4,5-trihydroxyphenyl)chromen-4-one] |  | no toxic effect | −100 |
